Assay results as given in patent US8569344B2, “N-piperidinyl acetamide derivatives as calcium channel blockers” (Zalicus Pharmaceuticals Ltd., priority 2008, dated 2013).

Molecular target: T1, human α1G T-type channels (Homo sapiens, UniProt O43497)
T1 construct: expressed in transfected cells; host or cells: HEK 293
Test: T-type calcium channel block, whole cell patch clamp in HEK cells (α1G)
Assay type: cell-based
Settings: HEK cells, patch clamp, mainly non-inactivated protocol; values above 10 μM shown as 10 μM, below 0.30 μM shown as 0.30 μM; read-out: T-type Calcium Channel Block α1G IC50
Description: (§1) T-type calcium channel blocking activity was assayed in human embryonic kidney cells, HEK 293, stably transfected with the T-type calcium channel subunits. Briefly, cells were cultured in Dulbecco's modified eagle medium (DMEM) supplemented with 10% fetal bovine serum, 200 U/ml penicillin and 0.2 mg/ml streptomycin at 37° C. with 5% CO2. At 85% confluency cells were split with 0.25% trypsin/1 mM EDTA and plated at 10% confluency on glass coverslips. […] Fresh DMEM was supplied and the cells transferred to 28° C./5% CO2. Cells were incubated for 1 to 2 days prior to whole cell recording.
(§2) Standard patch-clamp techniques were employed to identify blockers of T-type currents. Briefly, previously described HEK cell lines stably expressing human α1G, α1H and α1I T-type channels were used for all the recordings (passage #: 4-20, 37° C., 5% CO2). Whole cell patch clamp experiments were performed using an Axopatch 200B amplifier (Axon Instruments, Burlingame, Calif.) linked to a personal computer equipped with pCLAMP software. Data were analyzed using Clampfit (Axon Instruments) and SigmaPlot 4.0 (Jandel Scientific). To obtain T-type currents, plastic dishes containing semi-confluent cells were positioned on the stage of a ZEISS AXIOVERT S100 microscope after replacing the culture medium with external solution (see below). Whole-cell patches were obtained using pipettes (borosilicate glass with filament, O.D.: 1.5 mm, I.D.: 0.86 mm, 10 cm length), fabricated on a SUTTER P-97 puller with resistance values of ˜5 MΩ (see below for internal solution).
(§3) In the non-inactivating protocol, the holding potential is set at −110 mV and with a pre-pulse at −100 mV for 1 second prior to the test pulse at −40 mV for 50 ms.
(§4) Test compounds were dissolved in external solution, 0.1-0.01% DMSO. After ˜10 min rest, they were applied by gravity close to the cell using a WPI microfil tubing. The “non-inactivated” pre-pulse was used to examine the resting block of a compound. The “inactivated” protocol was employed to study voltage-dependent block. […] Values are shown in μM and values above 10 μM are simply represented as 10 μM.

T1 sequence (O43497 whole entry): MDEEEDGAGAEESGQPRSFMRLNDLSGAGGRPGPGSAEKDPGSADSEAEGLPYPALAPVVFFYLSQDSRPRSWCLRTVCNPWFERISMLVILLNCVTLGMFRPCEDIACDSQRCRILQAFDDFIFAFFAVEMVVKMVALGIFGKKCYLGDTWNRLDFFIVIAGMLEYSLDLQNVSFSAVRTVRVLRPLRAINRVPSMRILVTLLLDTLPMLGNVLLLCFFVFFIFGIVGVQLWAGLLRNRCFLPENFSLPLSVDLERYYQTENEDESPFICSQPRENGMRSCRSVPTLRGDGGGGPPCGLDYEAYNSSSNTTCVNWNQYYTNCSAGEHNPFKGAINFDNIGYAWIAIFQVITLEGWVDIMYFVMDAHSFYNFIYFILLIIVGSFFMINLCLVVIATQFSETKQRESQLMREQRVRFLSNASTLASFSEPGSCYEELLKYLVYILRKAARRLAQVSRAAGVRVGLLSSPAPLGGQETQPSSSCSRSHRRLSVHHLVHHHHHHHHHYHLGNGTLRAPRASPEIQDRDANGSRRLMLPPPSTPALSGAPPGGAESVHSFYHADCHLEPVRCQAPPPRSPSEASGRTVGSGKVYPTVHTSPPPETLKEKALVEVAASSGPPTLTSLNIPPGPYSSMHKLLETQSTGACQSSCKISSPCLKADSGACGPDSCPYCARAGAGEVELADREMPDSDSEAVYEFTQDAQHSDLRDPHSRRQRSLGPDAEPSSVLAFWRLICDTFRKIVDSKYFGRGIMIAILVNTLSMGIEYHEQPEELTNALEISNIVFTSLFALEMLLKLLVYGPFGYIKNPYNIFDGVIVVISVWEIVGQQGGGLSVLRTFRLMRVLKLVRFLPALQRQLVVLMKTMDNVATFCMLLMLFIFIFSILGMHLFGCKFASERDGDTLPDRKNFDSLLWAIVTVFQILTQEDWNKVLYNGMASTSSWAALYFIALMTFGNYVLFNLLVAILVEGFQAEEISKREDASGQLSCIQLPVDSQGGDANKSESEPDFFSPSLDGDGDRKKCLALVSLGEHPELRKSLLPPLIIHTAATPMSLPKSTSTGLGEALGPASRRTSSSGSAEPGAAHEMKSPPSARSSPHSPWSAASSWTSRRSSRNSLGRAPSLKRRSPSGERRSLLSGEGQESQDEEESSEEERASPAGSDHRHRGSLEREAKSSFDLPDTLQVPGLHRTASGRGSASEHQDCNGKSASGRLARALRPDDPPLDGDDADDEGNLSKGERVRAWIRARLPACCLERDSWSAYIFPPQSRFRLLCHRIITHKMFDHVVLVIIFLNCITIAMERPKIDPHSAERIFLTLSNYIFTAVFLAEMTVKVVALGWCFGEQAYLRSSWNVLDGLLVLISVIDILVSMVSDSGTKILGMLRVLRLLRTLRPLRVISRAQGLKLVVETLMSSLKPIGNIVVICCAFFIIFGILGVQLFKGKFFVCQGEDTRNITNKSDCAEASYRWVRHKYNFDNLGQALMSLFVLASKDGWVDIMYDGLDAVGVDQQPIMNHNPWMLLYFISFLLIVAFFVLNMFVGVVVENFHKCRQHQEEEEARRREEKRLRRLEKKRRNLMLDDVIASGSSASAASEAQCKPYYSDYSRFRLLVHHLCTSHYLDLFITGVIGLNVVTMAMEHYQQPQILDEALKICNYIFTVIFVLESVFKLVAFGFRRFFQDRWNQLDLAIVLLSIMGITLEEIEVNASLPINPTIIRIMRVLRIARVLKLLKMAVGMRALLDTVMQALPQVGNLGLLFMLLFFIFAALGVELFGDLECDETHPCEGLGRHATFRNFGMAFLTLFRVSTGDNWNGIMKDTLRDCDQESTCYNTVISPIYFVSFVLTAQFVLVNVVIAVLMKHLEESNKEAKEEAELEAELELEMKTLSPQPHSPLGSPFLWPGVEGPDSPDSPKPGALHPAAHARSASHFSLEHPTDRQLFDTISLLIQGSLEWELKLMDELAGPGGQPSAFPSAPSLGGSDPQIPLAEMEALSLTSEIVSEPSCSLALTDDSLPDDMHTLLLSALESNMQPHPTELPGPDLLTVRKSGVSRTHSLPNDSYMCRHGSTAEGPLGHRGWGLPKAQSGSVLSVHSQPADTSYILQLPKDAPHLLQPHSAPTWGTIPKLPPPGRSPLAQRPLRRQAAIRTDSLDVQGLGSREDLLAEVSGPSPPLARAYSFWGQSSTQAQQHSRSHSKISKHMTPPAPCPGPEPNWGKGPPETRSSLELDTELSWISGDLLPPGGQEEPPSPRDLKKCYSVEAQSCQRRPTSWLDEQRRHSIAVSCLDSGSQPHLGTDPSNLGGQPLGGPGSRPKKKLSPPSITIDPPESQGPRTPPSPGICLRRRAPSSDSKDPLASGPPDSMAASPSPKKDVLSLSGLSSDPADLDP

Row | IC50 [nM] | Structure (SMILES)
1 | 2080 | CC(C)(C)C(=O)N1CCC[C@H]1CN1CCC(CNC(=O)c2cc(F)cc(C(F)(F)F)c2)CC1 [Compound 423, (S)-3-fluoro-N-((1-((1-pivaloyl-pyrrolidin-2-yl)methyl)piperidin-4-yl)methyl)-5-(trifluoromethyl) benzamide]
2 | 440 | CC(C)(C)CC(=O)N1CCC[C@H]1CN1CCC(CNC(=O)c2cc(F)cc(C(F)(F)F)c2)CC1 [Compound 424, (S)-N-((1-((1-(3,3-dimethylbutanol)pyrrolidin-2-yl)methyl)piperidin-4-yl)methyl)-3-fluoro-5-(trifluoromethyl)benzamide]
3 | < 300 | CC(C)(C)NC(=O)CN1CCC(CNC(=O)c2cc(Br)cc(OC(F)(F)F)c2)CC1 [Compound 429, 3-bromo-N-((1-(2-(tert-butylamino)-2-oxoethyl)piperidin-4-yl)methyl)-5-(trifluoromethoxy)benzamide]
4 | < 300 | CC(C)(CO)NC(=O)CN1CCC(CNC(=O)c2cc(C(F)(F)F)cc(C(F)(F)F)c2)CC1 [Compound 430, N-((1-(2-(1-hydroxy-2-methyl-propan-2-ylamino)-2-oxoethyl)piperidin-4-yl)methyl)-3,5-bis(trifluoromethyl)benzamide]

Further lines, the compound ahead of its results:

Row | Structure (SMILES) | IC50 [nM]
5 | O=C(NCC1CCN(C[C@@H]2CCCN2S(=O)(=O)CCC(F)(F)F)CC1)c1cc(F)cc(C(F)(F)F)c1 [Compound 422, (S)-3-fluoro-5-(trifluoromethyl)-N-((1-((1-(3,3,3-trifluoropropyl-sulfonyl)pyrrolidin-2-yl)methyl)piperidin-4-yl)methyl) benzamide] | 1930
6 | O=C(NCC1CCN(C[C@@H]2CCCN2C(=O)C2CCCC2)CC1)c1cc(F)cc(C(F)(F)F)c1 [Compound 425, (S)-N-((1-((1-(cyclopentanecarbonyl)pyrrolidin-2-yl)methyl)piperidin-4-yl)methyl)-3-fluoro-5-(trifluoromethyl)benzamide] | < 300
7 | O=C(NCC1CCN(C[C@@H]2CCCN2C(=O)CCC(F)(F)F)CC1)c1cc(F)cc(C(F)(F)F)c1 [Compound 426, (S)-3-fluoro-N-((1-((1-(4,4,4-trifluorobutanoyl)pyrrolidin-2-yl)methyl)piperidin-4-yl)methyl)-5-(trifluoromethyl)benzamide] | < 300
8 | CC(C)(C)NC(=O)CN1CCC(CNC(=O)C2(c3ccc(Cl)cc3)CCCC2)CC1 [Compound 428, N-((1-(2-(tert-buylamino)-2-oxoethyl)piperidin-4-yl)methyl)-1-(4-chlorophenyl)cyclopentanecarboxamide] | < 300
9 | CC1(NC(=O)CN2CCC(CNC(=O)c3cc(C(F)(F)F)cc(C(F)(F)F)c3)CC2)CCCCC1 [Compound 431, N-((1-(2-(1-methylcyclohexylamino)-2-oxoethyl)piperidin-4-yl)methyl)-3,5-bis(trifluoromethyl)benzamide] | < 300
10 | CC(C)(C)NC(=O)CN1CCC(CNC(=O)C2(c3ccccc3)CCCC2)CC1 [Compound 432, N-((1-(2-(tert-butylamino)-2-oxoethyl)piperidin-4-yl)methyl)-1-phenylcyclopentanecarboxamide] | < 300
11 | Cc1cccc(C)c1NC(=O)CC1CCN(CCNS(=O)(=O)C(C)C)CC1 [Compound 433, N-(2,6-dimethylphenyl)-2-(1-(2-(1-methylethylsulfonamido)ethyl)piperidin-4-yl)acetamide] | > 10000

Molecular target: T2, human α1H T-type channels (Homo sapiens, UniProt O95180)
T2 construct: expressed in transfected cells; host or cells: HEK 293
Test: T-type calcium channel block, whole cell patch clamp in HEK cells (α1H)
Assay type: cell-based
Settings: HEK cells, patch clamp, mainly non-inactivated protocol; values above 10 μM shown as 10 μM; read-out: T-type Calcium Channel Block α1H IC50
Description: as §1, §2, §3, §4

T2 sequence (O95180 whole entry): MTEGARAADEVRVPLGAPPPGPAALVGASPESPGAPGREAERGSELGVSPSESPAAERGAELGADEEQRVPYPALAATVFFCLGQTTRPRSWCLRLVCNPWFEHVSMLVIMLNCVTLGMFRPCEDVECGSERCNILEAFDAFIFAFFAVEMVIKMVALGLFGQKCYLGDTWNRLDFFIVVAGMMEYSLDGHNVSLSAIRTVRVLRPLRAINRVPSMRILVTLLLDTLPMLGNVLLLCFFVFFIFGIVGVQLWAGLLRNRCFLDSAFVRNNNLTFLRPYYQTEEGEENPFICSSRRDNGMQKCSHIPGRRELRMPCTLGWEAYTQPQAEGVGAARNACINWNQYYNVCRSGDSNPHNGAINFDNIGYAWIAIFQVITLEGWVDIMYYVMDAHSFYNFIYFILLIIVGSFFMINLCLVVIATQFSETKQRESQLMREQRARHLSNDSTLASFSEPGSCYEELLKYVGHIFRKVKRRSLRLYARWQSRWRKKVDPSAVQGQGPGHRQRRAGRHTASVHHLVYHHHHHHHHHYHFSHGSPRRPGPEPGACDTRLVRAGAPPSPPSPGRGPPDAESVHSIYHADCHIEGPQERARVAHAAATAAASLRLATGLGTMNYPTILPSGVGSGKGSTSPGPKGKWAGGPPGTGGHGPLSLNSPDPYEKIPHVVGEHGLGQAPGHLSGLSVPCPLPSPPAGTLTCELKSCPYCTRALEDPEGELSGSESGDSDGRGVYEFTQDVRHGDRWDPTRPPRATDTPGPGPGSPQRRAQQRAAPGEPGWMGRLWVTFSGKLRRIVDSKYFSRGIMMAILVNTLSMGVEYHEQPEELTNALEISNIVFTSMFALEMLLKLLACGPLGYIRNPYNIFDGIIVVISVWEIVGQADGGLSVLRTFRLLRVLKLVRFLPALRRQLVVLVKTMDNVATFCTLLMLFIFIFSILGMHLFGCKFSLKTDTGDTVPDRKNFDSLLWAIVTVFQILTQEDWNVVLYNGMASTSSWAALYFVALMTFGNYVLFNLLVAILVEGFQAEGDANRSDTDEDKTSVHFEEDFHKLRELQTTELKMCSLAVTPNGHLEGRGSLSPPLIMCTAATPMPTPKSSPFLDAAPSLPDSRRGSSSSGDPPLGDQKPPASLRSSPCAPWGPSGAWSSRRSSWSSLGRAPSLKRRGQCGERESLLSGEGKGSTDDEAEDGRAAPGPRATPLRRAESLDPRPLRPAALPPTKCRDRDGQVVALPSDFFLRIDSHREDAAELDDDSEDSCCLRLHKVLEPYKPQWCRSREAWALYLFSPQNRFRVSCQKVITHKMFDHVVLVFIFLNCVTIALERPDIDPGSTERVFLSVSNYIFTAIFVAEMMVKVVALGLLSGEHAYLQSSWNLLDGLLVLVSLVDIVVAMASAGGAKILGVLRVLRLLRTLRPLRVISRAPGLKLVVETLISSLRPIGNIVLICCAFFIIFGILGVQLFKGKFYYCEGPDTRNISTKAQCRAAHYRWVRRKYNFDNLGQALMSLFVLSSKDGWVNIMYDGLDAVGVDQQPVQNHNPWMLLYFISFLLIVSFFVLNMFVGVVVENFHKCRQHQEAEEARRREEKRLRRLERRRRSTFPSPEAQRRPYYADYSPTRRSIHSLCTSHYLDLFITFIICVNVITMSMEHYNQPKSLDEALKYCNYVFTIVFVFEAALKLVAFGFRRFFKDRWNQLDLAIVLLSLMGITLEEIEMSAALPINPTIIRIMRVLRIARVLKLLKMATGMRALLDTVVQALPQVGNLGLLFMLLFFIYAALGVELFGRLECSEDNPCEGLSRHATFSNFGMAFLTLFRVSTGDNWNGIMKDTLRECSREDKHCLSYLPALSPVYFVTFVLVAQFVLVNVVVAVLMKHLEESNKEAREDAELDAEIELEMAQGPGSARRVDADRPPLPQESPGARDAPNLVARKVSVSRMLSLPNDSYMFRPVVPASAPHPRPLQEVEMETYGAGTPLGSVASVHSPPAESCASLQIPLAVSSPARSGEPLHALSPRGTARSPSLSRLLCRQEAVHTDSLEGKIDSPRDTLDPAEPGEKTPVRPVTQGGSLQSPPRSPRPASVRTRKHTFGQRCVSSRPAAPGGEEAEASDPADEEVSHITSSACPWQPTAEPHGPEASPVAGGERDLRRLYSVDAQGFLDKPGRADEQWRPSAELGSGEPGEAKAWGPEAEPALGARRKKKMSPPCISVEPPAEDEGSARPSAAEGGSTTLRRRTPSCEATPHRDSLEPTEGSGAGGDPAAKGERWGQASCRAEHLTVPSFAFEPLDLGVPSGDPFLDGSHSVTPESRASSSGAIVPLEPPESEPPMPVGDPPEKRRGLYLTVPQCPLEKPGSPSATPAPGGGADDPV

Row | IC50 [nM] | Structure (SMILES)
12 | 4330 | CCS(=O)(=O)NC(C)(C)CN1CCC(CNC(=O)c2cc(F)cc(C(F)(F)F)c2)CC1 [Compound 7, N-((1-(2-(ethylsulfonamido)-2-methylpropyl)piperidin-4-yl)methyl)-3-fluoro-5-(trifluoromethyl)benzamide]
13 | 4010 | CCC(=O)NCCN1CCC(CNC(=O)c2cc(C(F)(F)F)cc(C(F)(F)F)c2)CC1 [Compound 58, N-((1-(2-propionamidoethyl)piperidin-4-yl)methyl)-3,5-bis(trifluoromethyl) benzamide]
14 | 220 | CC(C)(C)C(=O)NCCN1CCC(CNC(=O)c2cc(C(F)(F)F)cc(C(F)(F)F)c2)CC1 [Compound 60, N-((1-(2-pivalamidoethyl)piperidin-4-yl)methyl)-3,5-his(trifluoromethyl)benzamide]
15 | 6370 | CC(C)(O)C(=O)NCCN1CCC(CNC(=O)c2cc(C(F)(F)F)cc(C(F)(F)F)c2)CC1 [Compound 65, N-((1-(2-(2-hydroxy-2-methylpropanamido)ethyl)piperidin-4-yl)methyl)-3,5-bis(trifluoromethyl) benzamide]
16 | > 10000 | O=C(CN1CCC(CNC(=O)c2cc(C(F)(F)F)cc(C(F)(F)F)c2)CC1)NC1CC1 [Compound 95, N-((1-(2-(cyclopropylamino)-2-oxoethyl)piperidin-4-yl)methyl)-3,5-bis(trifluoromethyl)benzamide]

More lines, now with the values behind:

Row | Structure (SMILES) | IC50 [nM]
17 | CC(C)(CN1CCC(CNC(=O)c2cc(F)cc(C(F)(F)F)c2)CC1)NS(=O)(=O)C(F)(F)F [Compound 6, 3-fluoro-N-((1-(2-methyl-2-(trifluoromethylsulfonamido)propyl)piperidin-4-yl)methyl)-5-(trifluoromethyl)benzamide] | 1320
18 | CC(C)(CN1CCC(CNC(=O)c2cc(F)cc(C(F)(F)F)c2)CC1)NS(=O)(=O)C1CC1 [Compound 8, N-((1-(2-(cyclopropanesulfonamido)-2-methylpropyl)piperidin-4-yl)methyl)-3-fluoro-5-(trifluoromethyl)benzamide] | 2420
19 | CC(C)CS(=O)(=O)NCCN1CCC(CNC(=O)c2cc(C(F)(F)F)cc(C(F)(F)F)c2)CC1 [Compound 27, N-((1-(2-(2-methylpropylsulfonamido)ethyl)piperidin-4-yl)methyl)-3,5-bis(trifluoromethyl)benzamide] | 190
20 | CN1CCC(C(=O)NCCN2CCC(CNC(=O)c3cc(C(F)(F)F)cc(C(F)(F)F)c3)CC2)CC1 [Compound 61, N-(2-(4-((3,5-bis(trifluoromethyl)benzamido)methyl)piperidin-1-yl)ethyl)-1-methylpiperidin-4-carboxamide] | > 10000
21 | O=C(NCC1CCN(CCNC(=O)C2CCCC2)CC1)c1cc(C(F)(F)F)cc(C(F)(F)F)c1 [Compound 62, N-((1-(2-(cyclopentanecarboxamido)ethyl)piperidin-4-yl)methyl)-3,5-bis(trifluoromethyl)benzamide] | 230
22 | O=C(CC1CC1)NCCN1CCC(CNC(=O)c2cc(C(F)(F)F)cc(C(F)(F)F)c2)CC1 [Compound 63, N-((1-(2-(2-cyclopropylacetamido)ethyl)piperidin-4-yl)methyl)-3,5-bis(trifluoromethyl)benzamide] | 430
23 | C[C@H]1CC[C@H](C(=O)NCCN2CCC(CNC(=O)c3cc(C(F)(F)F)cc(C(F)(F)F)c3)CC2)CC1 [Compound 64, N-((1-(2-((1r,4r)-4-methylcyclohexanecarboxamido)ethyl)piperidin-4-yl)methyl)-3,5-bis(trifluoromethyl)benzamide] | 200
24 | O=C(CCC(F)(F)F)NCCN1CCC(CNC(=O)c2cc(C(F)(F)F)cc(C(F)(F)F)c2)CC1 [Compound 66, N-((1-(2-(4,4,4-trifluorobutanamido)ethyl)piperidin-4-yl)methyl)-3,5-bis(trifluoromethyl) benzamide] | 370
25 | COCCC(=O)NCCN1CCC(CNC(=O)c2cc(C(F)(F)F)cc(C(F)(F)F)c2)CC1 [Compound 68, N-((1-(2-(3-methoxypropanamido)ethyl)piperidin-4-yl)methyl)-3,5-bis(trifluoromethyl) benzamide] | 7560
26 | O=C(CN1CCC(CNC(=O)c2cc(C(F)(F)F)cc(C(F)(F)F)c2)CC1)NC1CCCC1 [Compound 92, N-((1-(2-(cyclopentylamino)-2-oxoethyl)piperidin-4-yl)methyl)-3,5-bis(trifluoromethyl)benzamide] | 60
27 | CC1CCCCC1NC(=O)CN1CCC(CNC(=O)c2cc(C(F)(F)F)cc(C(F)(F)F)c2)CC1 (centres unmarked) [Compound 93] | 90
28 | O=C(CN1CCC(CNC(=O)c2cc(C(F)(F)F)cc(C(F)(F)F)c2)CC1)NC1CCCCC1 [Compound 94, N-((1-(2-(cyclohexylamino)-2-oxoethyl)piperidin-4-yl)methyl)-3,5-bis(trifluoromethyl)benzamide] | 60
29 | O=C(CN1CCC(CNC(=O)c2cc(C(F)(F)F)cc(C(F)(F)F)c2)CC1)N[C@H]1CC[C@H](O)CC1 [Compound 96, N-((1-(2-((1r,4r)-4-hydroxycyclo-hexylamino)-2-oxoethyl)piperidin-4-yl)methyl)-3,5-bis(trifluoromethyl) benzamide] | > 10000
